The values that follow come from PMC7880572 (ACS Chemical Neuroscience, 2021).

Like-named read-outs stand apart in the source and are kept apart here. Some results are limits rather than exact numbers.

The target in data set [1] is T1, Aβ40 (Homo sapiens, UniProt P05067).
T1 construct: samples of Aβ40 (30 μM) were coincubated for 2 h at 25 °C with test molecules; purchased EzBiolab, Carmel, IN, USA
Briefly: Inhibition of self-induced Aβ40 aggregation (ThT fluorescence, HFIP). The data set is classed as biochemical. As to conditions: Aβ40 30 μM, 2 h at 25 °C, PBS 2% HFIP; mean ± SEM, n = 3; read-out: Aβ40 aggr IC50. The procedure: In vitro inhibition of Aβ40 aggregation was assessed following a previously reported thioflavin T (ThT) fluorescence-based method involving the use of hexafluoroisopropanol (HFIP) as aggregation enhancer. […].
In vitro inhibition assay of Aβ40 aggregation has been previously reported[41] and adapted to a 96-well plate platform.
(§1) After incubation in 96-well black, nonbinding microplates (Greiner Bio-One GmbH, Frickenhausen, Germany), thioflavin T (25 μM) was added and fluorimetric reads (ex 440, em 485 nm) were performed in a multiplate reader Infinite M1000 Pro (Tecan, Cernusco sul Naviglio, Italy). Experiments were run in triplicate. Results were expressed by statistical analysis while IC50 values were obtained by nonlinear regression using Prism software (GraphPad Prism version 5.00 for Windows, GraphPad Software, San Diego, CA, USA).

For data set [2], the target named is T2, eeAChE (AChE from electric eel) (Electrophorus electricus, UniProt O42275).
T2 construct: purchased Sigma-Aldrich, Milan, Italy
Briefly: biochemical. Particulars: mean ± SEM, n = 3.

The target of data set [3] is T3, esBChE (BChE from equine serum) (Equus caballus, UniProt P81908).
T3 construct: BChE from horse serum (13 U/mL); purchased Sigma-Aldrich, Milan, Italy; host or cells: horse serum
Briefly: biochemical. As to conditions: mean ± SEM, n = 3.

The target in the next data set is T4, hMAO A (Homo sapiens, UniProt P21397).
T4 construct: purchased Sigma-Aldrich
T4 sequence (P21397 1-527): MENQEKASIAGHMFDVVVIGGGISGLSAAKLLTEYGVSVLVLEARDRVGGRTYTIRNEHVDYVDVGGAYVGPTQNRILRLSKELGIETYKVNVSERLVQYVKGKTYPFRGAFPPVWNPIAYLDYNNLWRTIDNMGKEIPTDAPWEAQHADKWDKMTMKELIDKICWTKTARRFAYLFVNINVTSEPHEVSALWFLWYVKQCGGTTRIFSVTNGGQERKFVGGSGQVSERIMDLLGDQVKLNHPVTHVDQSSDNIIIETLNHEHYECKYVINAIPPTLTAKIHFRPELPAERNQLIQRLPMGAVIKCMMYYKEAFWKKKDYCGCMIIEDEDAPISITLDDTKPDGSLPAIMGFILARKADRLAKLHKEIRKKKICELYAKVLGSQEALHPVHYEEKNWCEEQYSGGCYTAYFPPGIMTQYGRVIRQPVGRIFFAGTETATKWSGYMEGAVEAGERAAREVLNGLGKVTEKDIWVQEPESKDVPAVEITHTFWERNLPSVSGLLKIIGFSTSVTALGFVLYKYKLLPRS
Briefly: MAO A inhibition (fluorimetric kynuramine assay). It counts as biochemical. Particulars: mean ± SEM, n = 3.

Data set [4] concerns the target T5, MAO B (Homo sapiens, UniProt P27338).
T5 construct: purchased Sigma-Aldrich
T5 sequence (P27338 1-520): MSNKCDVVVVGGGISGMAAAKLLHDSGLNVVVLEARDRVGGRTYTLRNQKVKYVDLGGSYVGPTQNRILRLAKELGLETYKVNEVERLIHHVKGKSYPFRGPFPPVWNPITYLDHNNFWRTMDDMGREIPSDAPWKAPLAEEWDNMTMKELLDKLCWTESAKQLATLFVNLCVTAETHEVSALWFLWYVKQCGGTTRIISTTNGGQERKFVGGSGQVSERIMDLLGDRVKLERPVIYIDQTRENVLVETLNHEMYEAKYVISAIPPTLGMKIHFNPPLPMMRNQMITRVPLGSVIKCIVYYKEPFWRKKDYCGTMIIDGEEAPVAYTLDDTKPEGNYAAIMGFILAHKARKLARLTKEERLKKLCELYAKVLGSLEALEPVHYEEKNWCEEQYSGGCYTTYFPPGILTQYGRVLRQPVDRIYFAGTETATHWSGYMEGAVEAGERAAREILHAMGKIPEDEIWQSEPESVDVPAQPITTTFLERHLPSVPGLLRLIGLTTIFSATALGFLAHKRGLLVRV
Briefly: MAO B inhibition (fluorimetric kynuramine assay, inhibition kinetics). The data set is classed as biochemical. As to conditions: for IC50: mean ± SEM, n = 3.

The target of another data set is T6, R3 tau sequence (Homo sapiens, UniProt P10636).
T6 construct: The 30-amino acid peptide (V306-Q336) R3; purchased Bachem, Bubendorf, Switzerland
Put plainly: Inhibition of R3 aggregation (ThT fluorescence). The data set is classed as biochemical. Particulars: R3 25 μM, 4 h at 37 °C; mean of two independent experiments. The source says:
. The 30-amino acid peptide (V306-Q336) R3 is a high-repeated domain containing the PHF6 sequence and present in all tau isoforms.[62] Its high propensity to self-aggregate in buffered solutions, even in the absence of aggregation inducers such as heparin,[63] makes R3 a reliable surrogate of full-length tau protein for in vitro experiments. In our assay protocol, the commercial R3 peptide was pretreated with 1,1,1-trifluoroethanol (TFE) overnight in order to dissolve any preformed aggregate and reestablish the random coil arrangement, then diluted in PBS at the test concentration of 25 μM.
A stock solution of 1.5 mM R3 (trifluoroacetate salt; Bachem, Bubendorf, Switzerland) was prepared in TFE and left overnight at room temperature. […] . […] IC50 values were calculated by means of Prism as the mean of two independent experiments.

The target in the next data set is T7, Aβ42 (Homo sapiens, UniProt P05067).
T7 construct: purchased EzBiolab, Carmel, IN, USA
Put plainly: Inhibition of Aβ42 fibrillation by ThT fluorescence assay. The data set is classed as biochemical. Particulars: Aβ42 30 μM, 37 °C, 48 h; for inhibition of Aβ42 aggregation (activity profile): 100 and 5 μM. As to the method: Its high propensity to self-aggregate allows a fast execution of aggregation assays without the need of aggregation enhancers as for Aβ40.
Quercetin (QUR) was used as reference compound.
as §1

The next data set deals with cerebellar granule cells. Put plainly: In vitro cytotoxicity (MTT). It counts as cell-based. As to conditions: CGCs, compound 10 μM, 48 h, mean ± SEM. The procedure: . […] For a more meaningful assessment of the value of the present compounds, the issue of their toxicity, in comparison to established drugs for AD, should deserve further investigation.
Cerebellar granule cells were prepared from 8-day-old Sprague Dawley rats as described previously.[66] Cells were studied from the 6th to the 12th day in vitro. The experimental procedures and care of the animals were performed in compliance with the Directive of the EU Parliament and Council of September 22, 2010 (2010/63/EU) and were approved by the Italian Ministry of Health (COD. 75F11.N.6DX) in accordance with D.M. 116/1992. All efforts were made in order to minimize animal suffering and the number of animals necessary to obtain reliable results.
[…]. Cells were maintained in 5% CO2 at 37 °C. The cell viability was assessed by the MTT assay 48 h after the treatment. […]. The survival rates of viable cells were calculated by comparing the optical absorbance of treated samples with that of the untreated controls. All experiments were repeated at least three times independently, and data are expressed as the mean ± SEM.

For data set [5] the following is noted: based on the PAMPA-BBB classification range from Di et al. (In general: The PAMPA barrier holds no transporters, so it reflects passive diffusion.)
A further data set can be described thus: in vitro. Particulars: PAMPA, pH 7.4.
Another data set addresses PHF6 tau sequence (Homo sapiens, UniProt P10636). Briefly: Inhibition of PHF6 aggregation (ThT fluorescence). As to conditions: for inhibition at 10 µM: read-out: PHF6 aggregation inhibition.
The conditions of data set [6]: literature reported PAMPA-BBB permeability; ref 1 (Di et al., 2003); cited from earlier work.
Another data set has as its system AChE. More on the design: method as in PMID 25924599. As to conditions: first series; cited from earlier work.
Data set [7] addresses T1, Aβ40. More on the design: method as in PMID 25924599. As to conditions: first series; cited from earlier work.
Another data set deals with BChE. On the set-up: method as in PMID 25924599. As to conditions: first series; cited from earlier work.
Data set [8] deals with T5, MAO B. Put plainly: MAO B kynuramine assay in spectrophotometric mode (4-hydroxyquinoline absorbance at 316 nm), incl. time course. The data set is classed as biochemical.

T7 sequence (P05067 672-713 limits assumed): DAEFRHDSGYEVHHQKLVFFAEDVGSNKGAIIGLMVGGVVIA
T3 sequence (P81908 whole entry): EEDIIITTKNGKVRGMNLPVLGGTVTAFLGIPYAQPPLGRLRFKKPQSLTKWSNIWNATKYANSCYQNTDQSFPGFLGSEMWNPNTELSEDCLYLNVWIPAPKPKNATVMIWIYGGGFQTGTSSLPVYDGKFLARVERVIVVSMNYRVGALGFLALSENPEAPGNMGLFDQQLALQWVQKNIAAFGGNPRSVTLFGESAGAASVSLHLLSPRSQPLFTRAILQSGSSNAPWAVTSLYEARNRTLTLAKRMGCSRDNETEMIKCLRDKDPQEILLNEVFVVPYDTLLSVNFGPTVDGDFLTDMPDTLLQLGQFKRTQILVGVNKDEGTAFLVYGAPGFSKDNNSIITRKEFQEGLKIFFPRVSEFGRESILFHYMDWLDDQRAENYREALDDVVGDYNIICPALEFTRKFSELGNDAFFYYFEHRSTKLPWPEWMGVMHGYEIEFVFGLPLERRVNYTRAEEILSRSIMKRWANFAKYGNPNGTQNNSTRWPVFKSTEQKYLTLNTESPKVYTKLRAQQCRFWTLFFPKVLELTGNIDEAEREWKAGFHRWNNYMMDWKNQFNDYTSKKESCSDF
T2 sequence (O42275 24-633): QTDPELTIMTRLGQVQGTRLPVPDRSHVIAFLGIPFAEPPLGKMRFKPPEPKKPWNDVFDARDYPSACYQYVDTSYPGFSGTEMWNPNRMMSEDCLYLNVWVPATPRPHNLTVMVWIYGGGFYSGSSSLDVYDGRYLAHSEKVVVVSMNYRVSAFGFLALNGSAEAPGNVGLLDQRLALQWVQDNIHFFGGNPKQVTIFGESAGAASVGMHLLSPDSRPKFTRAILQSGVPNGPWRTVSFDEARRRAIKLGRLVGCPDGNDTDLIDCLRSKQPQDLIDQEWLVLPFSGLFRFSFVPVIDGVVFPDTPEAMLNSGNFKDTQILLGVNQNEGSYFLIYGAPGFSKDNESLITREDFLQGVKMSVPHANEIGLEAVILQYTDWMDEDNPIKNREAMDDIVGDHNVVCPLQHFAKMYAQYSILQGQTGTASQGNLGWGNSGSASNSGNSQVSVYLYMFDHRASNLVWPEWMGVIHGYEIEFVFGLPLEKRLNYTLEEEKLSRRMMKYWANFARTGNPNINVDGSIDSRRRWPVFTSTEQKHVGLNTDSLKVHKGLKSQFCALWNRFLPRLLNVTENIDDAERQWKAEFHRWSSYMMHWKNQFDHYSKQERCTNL
T1 sequence (P05067 672-711 limits assumed): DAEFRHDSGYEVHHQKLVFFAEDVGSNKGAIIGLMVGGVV
T6 sequence (P10636 623-653 limits assumed): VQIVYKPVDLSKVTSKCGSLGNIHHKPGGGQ

Usually IC50 stands for the midpoint of a concentration-inhibition curve. Usually Papp stands for a coefficient for how fast a substance crosses the barrier. Broadly, the inhibition is the percentage by which the read-out fell short of the control. `O=C1c2ccccc2C(=O)c2c(NCCc3ccccc3)cccc21` [Compound 11, 1-(Phenethylamino)-9,10-anthraquinone]: the IC50 at Aβ40 [1] was 2100 ± 200 nM; in [2], 7.3 ± 0.7 µM; in data set [3], 1.7 ± 0.3 µM; on hMAO A it was 3.1 ± 0.3 µM; at MAO B [4], 570 ± 20 nM; against R3 tau sequence, 360 ± 20 nM. Besides, the IC50 against PHF6 tau sequence worked out at 1.78 ± 0.23 µM. In addition, the “inhibition of Aβ42 aggregation (activity profile)” value at Aβ42 was “best activity profile”. Further, in the data set on cerebellar granule cells, the “cell viability vs control (%)” value is given as 85 ± 15%. Further, the CNS prediction entry in data set [5] is on record as “CNS+”. The compound also came in with a Papp at 16 h in the data set “in vitro” of 24.7 ± 2.2 ×10⁻⁶ cm/s. In addition, the inhibition at 10 µM at PHF6 tau sequence is > 95%.
Take `O=C1C(Cl)=C(NCCc2ccccc2)C(=O)c2ccccc21` [Compound 3]: the IC50 on Aβ40 [1] was determined as 4400 ± 300 nM; in data set [2], 7.9 ± 0.8 µM; at MAO B [4] it was 31 ± 1 nM; against R3 tau sequence it was 1190 ± 440 nM; on PHF6 tau sequence it was 4.96 ± 0.75 µM. Moreover, the results for the inhibition at 10 µM (in [3]; on hMAO A; at PHF6 tau sequence) were 24%, 41% and > 95%, respectively.
Compound `Cc1nnc2n1-c1ccc(Cl)cc1C(c1ccccc1)=NC2` [Alprazolam] showed a Papp in “in vitro” of 4.8 ×10⁻⁶ cm/s. Further, in data set [6], the “Pe,rep” value was 5.4 10-6 cm/s.
In “in vitro”, `O=C1Nc2ccc(Cl)cc2C(c2ccccc2)=NC1O` (stereo not drawn) [Oxazepam] displayed a Papp of 9.1 ×10⁻⁶ cm/s. In addition, the “Pe,rep” value in [6] is reported as 10 10-6 cm/s.
Regarding `O=C1c2ccccc2C(=O)c2c(NC[C@@H]3CCCN4CCCC[C@H]34)cccc21` [IX], the figures for the IC50 in the data set on AChE and on Aβ40 [7] were 840 nM and 6.4 µM, respectively.
With `O=C1C(Cl)=C(NCCCSC[C@@H]2CCCN3CCCC[C@H]23)C(=O)c2ccccc21` [VII], the IC50 is 4.1 µM with BChE and 61 µM on Aβ40 [7].
Turning to `O=C1c2ccccc2C(=O)c2c(NCCCc3ccccc3)cccc21` [Compound 12, 1-[(3-Phenylpropryl)amino]-9,10-anthraquinone], the IC50 was 1900 ± 300 nM on Aβ40 [1], 7.84 ± 0.03 µM in data set [2], 8.2 ± 0.4 µM in data set [3] and 240 ± 50 nM at MAO B [4]. The compound also yielded an inhibition at 10 µM against hMAO A of 50%. The “inhibition of Aβ42 aggregation (activity profile)” value at Aβ42 is “best activity profile”. In addition, the “cell viability vs control (%)” value in the data set with cerebellar granule cells is on record as 77 ± 12%. Further, in data set [5], the CNS prediction entry is recorded as “CNS+”. The compound further had a Papp at 16 h in the data set “in vitro” of 22 ± 1.9 ×10⁻⁶ cm/s.
Consider `CCN(CC)CCCNc1cccc2c1C(=O)c1ccccc1C2=O` [XIII], for which, on Aβ40 [7], the IC50 is 61 µM.
For `O=C1C(Cl)=C(NCc2ccccc2)C(=O)c2ccccc21` [Compound 2], the IC50 worked out at 3200 ± 800 nM on Aβ40 [1]; 9.2 ± 0.6 µM in [2]; 3.6 ± 0.3 µM on hMAO A; 7.7 ± 1.3 nM against MAO B [4]; 18 nM at MAO B [8] (absorbance of 4-hydroxyquinoline at 316 nm). Further, the inhibition at 10 µM in [3] came to 26%; on PHF6 tau sequence it was 91%. For the same compound, the “increase of Ki for higher coincubation times” value at MAO B [4] (coincubation up to 2 h vs 5 min) is recorded as “about 20 fold”. Also, the “MAO B inhibition mechanism” value at MAO B [4] (coincubation with enzyme limited to 5 min) was “competitive inhibition”; on MAO B [4] (higher coincubation times (up to 2 h)), “noncompetitive”. At MAO B [4] (ratio of inhibitory activities), the “selectivity MAO B versus MAO A” value came out at 473 fold. Also, the “MAO B enzymatic activity in time course” value at MAO B [8] (10 nM inhibitor, absorption of 4-hydroxyquinoline at 316 nm) is “still present even after 3 h”. Moreover, the “inhibition of Aβ42 aggregation” value against Aβ42 (lower concentration used (5 μM)) is “strong inhibitor”. In addition, in the data set with cerebellar granule cells, the “cell viability vs control (%)” value stood at 89 ± 14%. Moreover, the CNS prediction result in data set [5] is listed as “CNS+”. Further, the Papp at 16 h in the data set “in vitro” was 28.4 ± 2.1 ×10⁻⁶ cm/s.
